{
  "source": "ChEMBL document CHEMBL5247617",
  "about": "“4-Arylthiosemicarbazide derivatives - Pharmacokinetics, toxicity and anti-Toxoplasma gondii activity in vivo” (Eur J Med Chem, 2022)",
  "key": {"Toxoplasma gondii [1]": {"tested_on": "Toxoplasma gondii", "assay": "Antiparasitic activity against Toxoplasma gondii RH infected in BALB/c mouse assessed as reduction in number of bradyzoite gene copies in muscles at 20 mg/kg, po administered every 24 hrs for 5 days starting from 24 hrs post infection by real-time qPCR analysis", "format": "functional", "details": "time 5 day"}, "[2]": {"assay": "Toxicity in BALB/c mouse assessed as increase in serum AST level at 20 mg/kg, po administered for 5 days and measured on day 1 and day 14 by ELISA method", "format": "organism-based", "details": "in vivo, 120 h, time 5 day"}, "Toxoplasma gondii [3]": {"tested_on": "Toxoplasma gondii", "assay": "Antiparasitic activity against Toxoplasma gondii RH infected in BALB/c mouse assessed as reduction of bradyzoite gene copies in brain at 20 mg/kg, po administered every 24 hrs for 5 days starting from 24 hrs post infection by real-time qPCR analysis", "format": "functional, organism-based", "details": "time 5.0 day"}, "[4]": {"assay": "Toxicity in BALB/c mouse assessed as disseminated necrosis of hepatocytes at 20 mg/kg, po administered for 5 days and measured after 1 day by hematoxylin-eosin staining based microscopic analysis", "format": "organism-based", "details": "in vivo, 120 h, time 5 day"}, "Toxoplasma gondii [5]": {"tested_on": "Toxoplasma gondii", "assay": "Antiparasitic activity against Toxoplasma gondii RH infected in BALB/c mouse assessed as decrease in IFNgamma level in serum at 20 mg/kg, po administered every 24 hrs for 5 days starting from 24 hrs post infection by ELISA method", "format": "functional, organism-based", "details": "time 5.0 day"}, "Toxoplasma gondii [6]": {"tested_on": "Toxoplasma gondii", "assay": "Antiparasitic activity against Toxoplasma gondii DX infected in C3H/HeOuJ mouse assessed as prolongation of survival at 20 mg/kg, po administered every 24 hrs for 5 days starting from 24 hrs post infection by Kaplan-Meier method", "format": "functional, organism-based", "details": "time 5.0 day"}, "Toxoplasma gondii [7]": {"tested_on": "Toxoplasma gondii", "assay": "Antiparasitic activity against Toxoplasma gondii RH infected in BALB/c mouse assessed as prolongation of animal survival at 20 mg/kg, po administered every 24 hrs for 5 days starting from 24 hrs post infection by Kaplan-Meier method", "format": "functional, organism-based", "details": "time 5.0 day"}, "[8]": {"assay": "Toxicity in BALB/c mouse assessed as changes in liver weight at 20 mg/kg, po administered for 5 days and measured after 14 days", "format": "organism-based", "details": "in vivo, 120 h, time 5 day"}, "[9]": {"assay": "Toxicity in BALB/c mouse assessed as hydropic degeneration at 20 mg/kg, po administered for 5 days and measured after 1 day by hematoxylin-eosin staining based microscopic analysis", "format": "organism-based", "details": "in vivo, 120 h, time 5 day"}, "[10]": {"assay": "Toxicity in BALB/c mouse assessed as increase in creatinine level at 20 mg/kg, po administered for 5 days and measured after 1 day by colorimetric assay", "format": "organism-based", "details": "in vivo, 120 h, time 5 day"}, "[11]": {"assay": "Toxicity in BALB/c mouse assessed as increase in serum ALT level at 20 mg/kg, po administered for 5 days and measured on day 1 and day 14 by ELISA method", "format": "organism-based", "details": "in vivo, 120 h, time 5 day"}, "[12]": {"assay": "Toxicity in BALB/c mouse assessed as increase in creatinine level at 20 mg/kg, po administered for 5 days and measured after 14 days by colorimetric assay", "format": "organism-based", "details": "in vivo, 120 h, time 5 day"}, "Toxoplasma gondii [13]": {"tested_on": "Toxoplasma gondii", "assay": "Antiparasitic activity against Toxoplasma gondii RH infected in BALB/c mouse assessed as reduction of daughter tachyzoites in blood at 20 mg/kg, po administered every 24 hrs for 5 days starting from 24 hrs post infection by real-time qPCR analysis", "format": "functional, organism-based", "details": "time 5.0 day"}, "[14]": {"assay": "Toxicity in BALB/c mouse assessed as increase in liver weight at 20 mg/kg, po administered for 5 days and measured after 1 day", "format": "organism-based", "details": "in vivo, 120 h, time 5 day"}, "[15]": {"assay": "Toxicity in BALB/c mouse assessed as changes in size of hepatocyte nuclei at 20 mg/kg, po administered for 5 days and measured after 1 day by hematoxylin-eosin staining based microscopic analysis", "format": "organism-based", "details": "hepatocytes, 120 h, time 5 day"}},
  "note": "Activity calls are given as the source filed them. The calls are words filed in the database; no cut-off is given here.",
  "data": [
    {"smiles": "CCc1nc(N)nc(N)c1-c1ccc(Cl)cc1", "note": "[PYRIMETHAMINE]", "values": [
      {"measurement": "Activity", "setting": "Toxoplasma gondii [1]", "value": 14},
      {"measurement": "Activity", "setting": "[2]", "value": "Toxic"},
      {"measurement": "Activity", "setting": "Toxoplasma gondii [3]", "value": "Active"},
      {"measurement": "Activity", "setting": "[4]", "value": "Toxic"},
      {"measurement": "Activity", "setting": "Toxoplasma gondii [5]", "value": "Active"},
      {"measurement": "Activity", "setting": "Toxoplasma gondii [6]", "value": "Active"},
      {"measurement": "Activity", "setting": "Toxoplasma gondii [7]", "value": "Active"},
      {"measurement": "Activity", "setting": "[8]", "value": "Non-Toxic"},
      {"measurement": "Activity", "setting": "[9]", "value": "Toxic"},
      {"measurement": "Activity", "setting": "[10]", "value": "Toxic"},
      {"measurement": "Activity", "setting": "[11]", "value": "Toxic"},
      {"measurement": "Activity", "setting": "[12]", "value": "Toxic"},
      {"measurement": "Activity", "setting": "Toxoplasma gondii [13]", "value": "Active"},
      {"measurement": "Activity", "setting": "[14]", "value": "Toxic"},
      {"measurement": "Activity", "setting": "[15]", "value": "Toxic"}
    ]}
  ]
}
